According to patent US4997829A, “Penem compounds, and use thereof” (Suntory Limited, priority 1985, dated 1991):

Experiments:
[1] = literature; cited from earlier work
S. aureus Smith = assay: Therapeutic effect against experimental infection in mice (ED50); format: in vivo, S. aureus; ICR strain male mice; settings: oral; survival after 6 days, Probit method; 8640 min
Description: (§1) Out of the novel compound obtained according to this invention, SUN 4435 was selected to carry out a treatment experiment with infected animals. As an animal, there were employed ICR strain male mice (5-weeks aged, with an average body weight of 29.1 g), which were infected intraperitoneally with a test microorganism, S. aureus Smith or E. coli KC-14, and 24 hours later, treated by subcutaneous or oral application of SUN 4435 or SUN 5555. ED50 values were determined from the survival rates found after 6 days in accordance with the Probit method.

E. coli KC-14 = assay: as above; format: in vivo, E. coli; ICR strain male mice; settings: oral; survival after 6 days, Probit method; 8640 min
Description: as §1

Acute toxicity test = format: in vivo; settings: intravenous
Description: Out of the novel compounds obtained according to this invention, SUN 4435 and SUN 5555 were selected to carry out an acute toxicity test. As an animal, there were employed ICR strain mice (4-weeks aged), which were treated by oral and intravenous application of the compounds.

A. calcoaceticus = assay: Sensitivity of clinically isolated strains; format: cell-based; settings: Acinetobacter calcoaceticus; clinical isolates
Description: (§2) With regard to the novel compound, SUN 5555, as obtained according to this invention, sensitivities were determined toward the S. aureus strain 87, E. coli strain 88, Klebsiella sp. strain 63, P. mirabillis strain 30, P. vulgaris strain 41, M. morganii strain 29, P. rettgeri strain 17, S. marcescens strain 88, A. calcoaceticus strain 57 and H. influenza strain 25. The determinations were carried out in accordance with the minimal growth inhibitory concentration measuring method as specified by The Chemotherapeutic Society of Japan, with the results being shown […], respectively.

E. coli = assay: Sensitivity of clinically isolated strains; format: cell-based; settings: Escherichia coli; clinical isolates
Description: as §2

H. influenza = assay: Sensitivity of clinically isolated strains; format: cell-based; settings: clinical isolates
Description: as §2

Klebsiella sp. = assay: Sensitivity of clinically isolated strains; format: cell-based; settings: clinical isolates
Description: as §2

M. morganii = assay: Sensitivity of clinically isolated strains; format: cell-based; settings: Morganella morganii; clinical isolates
Description: as §2

[2] = test system: Methycillin-resistant S. aureus; assay: Sensitivity of clinically isolated strains; format: cell-based; settings: Staphylococcus aureus
Description: as §2

P. mirabillis = assay: Sensitivity of clinically isolated strains; format: cell-based; settings: clinical isolates
Description: as §2

P. rettgeri = assay: Sensitivity of clinically isolated strains; format: cell-based; settings: Providencia rettgeri; clinical isolates
Description: as §2

P. vulgaris = assay: Sensitivity of clinically isolated strains; format: cell-based; settings: Proteus vulgaris
Description: as §2

S. aureus = assay: Sensitivity of clinically isolated strains; format: cell-based; settings: Staphylococcus aureus; clinical isolates
Description: as §2

S. marcescens = assay: Sensitivity of clinically isolated strains; format: cell-based; settings: Serratia marcescens; clinical isolates
Description: as §2

S. pyogenenes = assay: Sensitivity of clinically isolated strains; format: cell-based; settings: clinical isolates

In the case of `C[C@@H](O)[C@@H]1C(=O)N2C(C(=O)O)=C(SCCN)S[C@H]12` [1-thiathienamycin], the activity [1] is given as “strong activity”.

With `C[C@@H](O)[C@H]1C(=O)N2C(C(=O)O)=C([C@H]3CCCO3)S[C@H]12` [SUN 5555, Sodium (1'R, 2"R, 5R, 6S)-6-(1'-hydroxyethyl)-2-(2"-tetrahydofuranyl)penem-3-carboxylate] the ED50 (S. aureus Smith) was 5.6 mg/kg, the ED50 (E. coli KC-14) was 13.9 mg/kg and the survival (Acute toxicity test; 3 g/kg, two male and female mice) was “survived”. For the same compound, the survival (Acute toxicity test; 5 g/kg, five male mice) was “one out of five male mice”, the MIC50 (A. calcoaceticus) was 6.25 µg/mL and the MIC90 (A. calcoaceticus) was 25 µg/mL. It also gave an MIC50 (E. coli) of 0.78 µg/mL, an MIC90 (E. coli) of 1.56 µg/mL and an MIC50 (H. influenza) of 0.39 µg/mL. For the same compound, the MIC90 (H. influenza) was 0.78 µg/mL, the MIC50 (Klebsiella sp.) was 0.78 µg/mL and the MIC90 (Klebsiella sp.) was 1.56 µg/mL. For the same compound, the MIC50 (M. morganii) was 1.56 µg/mL, the MIC90 (M. morganii) was 6.25 µg/mL and the MIC50 [2] was 1.56 µg/mL. For the same compound, the MIC90 [2] was greater than 100 µg/mL, the MIC50 (P. mirabillis) was 3.13 µg/mL and the MIC90 (P. mirabillis) was 6.25 µg/mL. It also gave an MIC50 (P. rettgeri) of 1.56 µg/mL, an MIC90 (P. rettgeri) of 6.25 µg/mL and an MIC50 (P. vulgaris) of 3.13 µg/mL. For the same compound, the MIC90 (P. vulgaris) was 6.25 µg/mL, the MIC50 (S. aureus) was 0.1 µg/mL and the MIC90 (S. aureus) was 0.2 µg/mL. The MIC50 (S. marcescens) was 1.56 µg/mL, the MIC90 (S. marcescens) was 6.25 µg/mL and the MIC50 (S. pyogenenes) was less than 0.025 µg/mL. For the same compound, the MIC90 (S. pyogenenes) was less than 0.025 µg/mL.

For `CCSC1=C(C(=O)O)N2C(=O)[C@H]([C@@H](C)O)[C@H]2S1` [Sch 29482], the activity [1] is given as “strong activity”.
